In patent publication US20240261474A1, “BIODEGRADABLE TISSUE SCAFFOLD WITH SECONDARY MATRIX TO HOST WEAKLY ADHERENT CELLS” (THE U.S.A., as represented by the Secretary, Department of …, priority 2021, published 2024):
Entries after “also recorded” stand apart in the source; their conditions may differ.

Assays:
Format in all cases: cell-based, human
acid phosphatase = assay: Acid phosphatase activity in lysates of treated RPE cells (p-nitrophenyl phosphate); conditions: compared with DMSO- or endo-IWR-1-treated cells
Protocol: Acid phosphatase has higher expression in the macula (Boulton et al., Br. J. Opthalm. 78:125-9, doi: 10.1136/bjo.78.2.125, 1994). This enzyme has an important role in photoreceptor outer segment digestion. The acid phosphatase activity was determined in cells treated with DMSO, AGN 193109 or endo-IWR-1. RPE cells were lysed in distilled water to extract the enzyme. The lysates were then incubated with p-nitrophenyl phosphate, a phosphatase substrate that turn yellow when dephosphorylated by acid phosphatase. The color of the solution was measured with a spectrophotometer to estimate the enzyme activity.

iPSC-RPE = assay: Testing different concentrations of AGN 193109 and endo-IWR-1 to reproduce macular (P1), central (P2) and peripheral (P3) cells
Protocol: FIG. 13. Testing different concentrations of AGN 193109 and endo-IWR-1 to reproduce macular (P1), central (P2) and peripheral (P3) cells. A range of concentrations of AGN 193109 and endo-IWR-1 were tested that could be used to reproduce macular, central and peripheral RPE populations (labeled P1, P2 and P3, respectively). Population 1 (P1, macular cells) can be reproduced with […] of AGN 193109. Population 3 (P3, peripheral) can be reproduced with 1 mM-4 mM of endo-IWR-1. A gradient of AGN 193109 and endo-IWR-1 could be used to replicate human RPE population 2 (P2, central)—central RPE cells. In one example, this can be reproduced with 25 nM-50 nM of AGN 193109 and 0.1 mM-0.5 mM of endo-IWR-1. Boxplots relative to DMSO, P1, P2 and P3 are plotted on the left side of the graph as a reference for cell size comparison. Five concentrations were tested for AGN 193109 and endo-IWR-1.

iPSC-RPE cells = assay: Phagocytosis test with labelled bovine outer segments, flow cytometry; conditions: 4 hours incubation with outer segments; One-way ANOVA showed no difference
Protocol: iPSC-RPE cells were provided purified bovine outer segment (mostly rod photoreceptors) to phagocytose. The outer segments were labelled with a dye that fluoresce when the outer segments are phagocytosed. RPE cells were incubated for 4 hours with outer segments and then analyzed with flow cytometry to measure outer segment ingestion or put back in the incubator for 20 hours before performing flow cytometry to measure outer segment digestion.

Structure (SMILES) | acid phosphatase activity (acid phosphatase) | concentration that reproduces population 2 (P2, central) (iPSC-RPE; AGN 193109 combined with endo-IWR-1) [nM] | concentration used to reproduce P1 (macular) (iPSC-RPE; Table 6) [µM] | outer segment ingestion (iPSC-RPE cells) | concentration used to reproduce P3 (peripheral) (iPSC-RPE; Table 6) [µM] | concentration used to reproduce P2 (central) (iPSC-RPE; Table 6, ENDO-1-IWR combined with AGN 193109) [µM]
Cc1ccc(C2=CCC(C)(C)c3ccc(C#Cc4ccc(C(=O)O)cc4)cc32)cc1 [AGN 193109, 4-[2-[5,6-Dihydro-5,5-dimethyl-8-(4-methylphenyl)-2-naphthalenyl]ethynyl]-benzoic acid] | higher acid phosphatase activity than DMSO- or endo-IWR-1-treated cells; also recorded: higher acid phosphatase activity | 25 to 50 | 0.1 to 0.2 | – | – | –
O=C(Nc1cccc2cccnc12)c1ccc(N2C(=O)C3C4C=CC(C4)C3C2=O)cc1 (stereo not drawn) [ENDO-1-IWR, 4-(1,3,3a,4,7,7a-Hexahydro-1,3-dioxo-4,7-methano-2H-isoindol-2-yl)-N-8-quinolinyl-Benzamide] | – | – | – | ingest (peripheral cells) more outer segments | 1 to 4 | 0.1 to 0.2
